Consider 38 compounds from patent publication US5498609A, “Benzoazepinyl compounds as oxytocin and vasopressin antagonists” (Otsuka Pharmaceutical Company, Limited, priority 1992, dated 1996).

One may read the IC50 as the concentration that inhibits the measured activity by half.

One experiment concerns the target V1 receptor (Rattus norvegicus, UniProt P30560). The experiment can be described thus: biochemical. Particulars: rat liver plasma membrane, [3H]-Arg-vasopressin, 37° C., 10 minutes, pH 8.0; read-out: IC50 in V1 receptor binding assay. As to the method:
Experiment 1: V1 receptor binding assay
Using rat liver plasma membrane preparations prepared according to Ichihara's method [cf: Akira Ichihara, J. Bio. Chem., 258, 9283 (1983)], the plasma membrane (50000 dpm, 2×10^-10 M) of [^3 H]-Arg-vasopressin and a test compound (60 μg, 10^-8 to 10^-4 M) are incubated at 37° C. for 10 minutes in 100 mM Tris-HCl buffer (pH: 8.0) (250 μl) containing 5 mM MgCl2, 1 mM EDTA and 0.1% BSA. After incubation, the mixture is filtered three times using the glass filter (GF/F) so as to separate the membrane preparation binding with vasopressin and then washed with the buffer (5 ml). This glass filter is taken out and mixed with liquid scintillation cocktail. The amount of [^3 H]-vasopressin binding with the membrane is measured by liquid scintillation counter and the rate of the inhibitory effect of the test compound is estimated according to the following equation. [formula] C1 : The amount of [^3 H]-vasopressin binding with the membrane in the presence of the test compound (known amount)
(§1) C0 : The amount of [^3 H]-vasopressin binding with the membrane in the absence of the test compound
(§2) B1 : The amount of [^3 H]-vasopressin binding with the membrane in the presence of the excess amount of vasopressin (10^-6 M)
(§3) The results are expressed as IC50 value, which is the concentration of the test compound required to achieve the inhibitory effect in the rate of 50%.

The target in a further experiment is T1, V2 receptor (Rattus norvegicus, UniProt Q00788).
T1 construct: Using rat kidney plasma membrane preparations; from tissue; host or cells: rat kidney plasma membrane
Put plainly: biochemical. Particulars: rat kidney plasma membrane, [3H]-Arg-vasopressin, 4° C., pH 8.0, read-out: IC50 in V2 receptor binding assay. On the procedure: Experiment 2: V2 receptor binding assay
Using rat kidney plasma membrane preparations prepared according to O. Hechter's method [cf: J. Bio. Chem., 253, 3211 (1978)], the plasma membrane (100000 dpm, 4×10^-10 M) of [^3 H]-Arg-vasopressin and a test compound (0.6 mg, 10^-10 to 10^-5 M) are incubated at 4° C. for 3 hours in 100 mM Tris-HCl buffer (pH: 8.0) (250 μl) containing 5 mM MgCl2, 1 mM EDTA and 0.1% BSA. After incubation, the mixture is filtered using the glass filter (GF/F) so as to separate the membrane preparation binding with vasopressin and then washed twice with the buffer (each 5 ml). This glass filter is taken out and mixed with liquid scintillation cocktail. The amount of [^3 H]-vasopressin binding with the membrane is measured by liquid scintillation counter and the rate of the inhibitory effect of the test compound is estimated according to the following equation. [formula] C1 : The amount of [^3 H]-vasopressin binding with the membrane in the presence of the test compound (known amount)
as §1, §2, §3

Molecules are shown by their SMILES. Where a name gives a salt, the structure may show the parent alone.

T1 sequence (Q00788 whole entry): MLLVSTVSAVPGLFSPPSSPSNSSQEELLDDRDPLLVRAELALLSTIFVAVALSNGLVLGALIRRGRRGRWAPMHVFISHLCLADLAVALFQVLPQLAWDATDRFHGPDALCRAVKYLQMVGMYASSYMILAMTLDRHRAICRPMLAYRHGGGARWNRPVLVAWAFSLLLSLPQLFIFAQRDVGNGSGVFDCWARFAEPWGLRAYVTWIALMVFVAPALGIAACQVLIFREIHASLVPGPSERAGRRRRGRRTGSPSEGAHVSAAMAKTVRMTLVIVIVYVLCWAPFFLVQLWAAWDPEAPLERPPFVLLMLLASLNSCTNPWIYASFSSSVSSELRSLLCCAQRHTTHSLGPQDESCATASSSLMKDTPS
V1 receptor, sequence (P30560 whole entry): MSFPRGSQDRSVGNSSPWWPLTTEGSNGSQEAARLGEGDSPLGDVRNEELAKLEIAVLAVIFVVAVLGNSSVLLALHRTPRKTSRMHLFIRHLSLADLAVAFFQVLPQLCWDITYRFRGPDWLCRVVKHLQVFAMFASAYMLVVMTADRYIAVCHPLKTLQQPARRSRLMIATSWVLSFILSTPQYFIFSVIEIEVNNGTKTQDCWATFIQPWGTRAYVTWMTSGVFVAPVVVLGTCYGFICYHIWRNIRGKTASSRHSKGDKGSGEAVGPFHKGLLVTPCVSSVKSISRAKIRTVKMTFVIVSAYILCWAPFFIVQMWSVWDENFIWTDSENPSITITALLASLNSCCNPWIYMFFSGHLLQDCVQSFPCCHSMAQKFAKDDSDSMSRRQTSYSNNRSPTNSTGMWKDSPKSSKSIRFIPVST

`Cc1ccccc1C(=O)Nc1ccc(C(=O)N2CCCC(O)c3cc(Cl)ccc32)cn1` (stereo not shown) [Compound of Ex. 25]: the IC50 on V1 receptor came to 14 nM; on V2 receptor, 4 nM.
Taken in the same sequence, the figures for `Cc1cccc(C(=O)Nc2ccc(C(=O)N3CCCC(O)c4cc(Cl)ccc43)cn2)c1` (stereo not shown) [Compound of Ex. 26] were 78 nM and 21 nM.
For the compound `COc1ccccc1C(=O)Nc1ccc(C(=O)N2CCCC(O)c3cc(Cl)ccc32)cn1` (stereo not shown) [Compound of Ex. 28], the IC50 on V1 receptor is 77 nM; on V2 receptor it was 170 nM.
Taken in the same sequence, the figures for `O=C(Nc1ccc(C(=O)N2CCCC(O)c3cc(Cl)ccc32)cn1)c1ccccc1[N+](=O)[O-]` (stereo not shown) [Compound of Ex. 29] were 24 nM and 11 nM.
Taken in the same sequence, the figures for `O=C(Nc1ccc(C(=O)N2CCCC(O)c3cc(Cl)ccc32)cn1)c1cccs1` (stereo not shown) [Compound of Ex. 31] were 57 nM and 120 nM.
As to `O=C(Nc1ccc(C(=O)N2CCCC(O)c3cc(Cl)ccc32)cn1)C1CCCCC1` (stereo not shown) [Compound of Ex. 32], the results for the IC50 at V1 receptor and at V2 receptor were 12 nM and 16 nM, respectively.
Taken in the same sequence, the figures for `Cc1ccccc1CC(=O)Nc1ccc(C(=O)N2CCCC(O)c3cc(Cl)ccc32)cn1` (stereo not shown) [Compound of Ex. 33] were 7 nM and 3 nM.
The matching figures for `Cc1ccccc1C(=O)Nc1ccc(C(=O)N2CCCC(O)(CO)c3cc(Cl)ccc32)cn1` (stereo not shown) [Compound of Ex. 34]: 66 nM and 16 nM.
The matching figures for `Cc1ccccc1C(=O)Nc1ccc(C(=O)N2CCCC(OCC(=O)N3CCN(C)CC3)c3cc(Cl)ccc32)cn1` (stereo not shown) [Compound of Ex. 35]: 20 nM and 7 nM.
Regarding `Cc1ccccc1C(=O)Nc1ccc(C(=O)N2CCCC(OCCO)c3cc(Cl)ccc32)cn1` (stereo not shown) [Compound of Ex. 36, 7-chloro-5-(2-hydroxyethoxy)-1-[6-(2-methylbenzoylamino)nicotinoyl]-2,3,4,5-tetrahydro-1H-benzazepine], the figures for the IC50 at V1 receptor and at V2 receptor were 43 nM and 3 nM, respectively.
`CC(=O)NCCOC1CCCN(C(=O)c2ccc(NC(=O)c3ccccc3C)nc2)c2ccc(Cl)cc21` (stereo not shown) [Compound of Ex. 38, 7-chloro-5-(2-acetylaminoethoxy)-1-[6-(2-methylbenzoylamino)nicotinoyl]-2,3,4,5-tetrahydro-1H-benzazepine]: the results for the IC50 at V1 receptor and at V2 receptor were 26 nM and 3 nM, respectively.
In the case of `Cc1ccccc1C(=O)Nc1ccc(C(=O)N2CCCC(CC(=O)O)c3cc(Cl)ccc32)cn1` (stereo not shown) [Compound of Ex. 39], the IC50 at V1 receptor was determined as 910 nM; at V2 receptor, 68 nM.
Taken in the same sequence, the figures for `Cc1ccccc1C(=O)Nc1ccc(C(=O)N2CCCC(CC(=O)N(C)C)c3cc(Cl)ccc32)cn1` (stereo not shown) [Compound of Ex. 41] were 22 nM and 4 nM.
Taken in the same sequence, the figures for `Cc1ccccc1C(=O)Nc1ccc(C(=O)N2CCCC(CC(=O)N3CCN(C)CC3)c3cc(Cl)ccc32)cn1` (stereo not shown) [Compound of Ex. 42] were 30 nM and 3 nM.
Taken in the same sequence, the figures for `Cc1ccccc1C(=O)Nc1ccc(C(=O)N2CCN(C)Cc3cc(Cl)ccc32)cn1` [Compound of Ex. 47] were 150 nM and 89 nM.
For `Cc1ccccc1C(=O)Nc1ccc(C(=O)N2CCCC(O)c3cc(Cl)ccc32)s1` (stereo not shown) [Compound of Ex. 48], the IC50 stood at 67 nM at V1 receptor and 300 nM on V2 receptor.
Consider `Cc1ccccc1C(=O)Nc1cnc(C(=O)N2CCCC(O)c3cc(Cl)ccc32)s1` (stereo not shown) [Compound of Ex. 49], for which the IC50 on V1 receptor came out at 41 nM; at V2 receptor, 250 nM.
Taken in the same sequence, the figures for `Cc1ccccc1C(=O)Nc1ccc(C(=O)N2CCCC(O)c3cc(Cl)ccc32)nc1` (stereo not shown) [Compound of Ex. 50] were 78 nM and 61 nM.
The matching figures for `CN1CCCN(C(=O)c2ccc(NC(=O)c3ccccc3Cl)nc2)c2ccc(Cl)cc21` [Compound of Ex. 53]: 55 nM and 19 nM.
Taken in the same sequence, the figures for `COC1CCCN(C(=O)c2ccc(NC(=O)c3ccccc3Br)nc2)c2ccc(Cl)cc21` (stereo not shown) [Compound of Ex. 73] were 12 nM and 1.9 nM.
With `O=C(Nc1ccc(C(=O)N2CCCC(NC3CC3)c3cc(Cl)ccc32)cn1)c1ccccc1Cl` (stereo not shown) [Compound of Ex. 78], the values for the IC50 at V1 receptor and at V2 receptor were 17 nM and 10 nM, respectively.
Taken in the same sequence, the figures for `CNC1CCCN(C(=O)c2ccc(NC(=O)c3ccccc3C)nc2)c2ccc(Cl)cc21` (stereo not shown) [Compound of Ex. 79] were 41 nM and 3.7 nM.
The matching figures for `CN(C)CCOc1ccccc1C(=O)Nc1ccc(C(=O)N2CCCCc3cc(Cl)ccc32)cn1` [Compound of Ex. 96, 7-chloro-1-{6-[2-(2-dimethylaminoethoxy)benzoyl-amino]nicotinoyl}-2,3,4,5-tetrahydro-1H-benzazepine dihydrochloride]: 43 nM and 300 nM.
The matching figures for `CCN(CC)CCN(C)C(=O)CC1CCCN(C(=O)c2ccc(NC(=O)c3ccccc3C)nc2)c2ccc(Cl)cc21` (stereo not shown) [Compound of Ex. 105]: 9 nM and 3 nM.
`O=C(Nc1ccc(C(=O)N2CCCC(CC(=O)N3CCNCC3)c3cc(Cl)ccc32)cn1)c1ccccc1Cl` (stereo not shown) [Compound of Ex. 116, 7-chloro-5-(1-piperazinyl)carboxymethyl-1-[6-(2-chlorobenzoylamino)nicotinoyl]-2,3,4,5-tetrahydro-1H-benzazepine]: the results for the IC50 at V1 receptor and on V2 receptor were 12 nM and 3.1 nM, respectively.
The matching figures for `CC(=O)N1CCN(CCC2CCCN(C(=O)c3ccc(NC(=O)c4ccccc4Cl)nc3)c3ccc(Cl)cc32)CC1` (stereo not shown) [Compound of Ex. 128]: 16 nM and 4.6 nM.
Regarding `O=C(Nc1ccc(C(=O)N2CCCC(CCn3ccnc3)c3cc(Cl)ccc32)cn1)c1ccccc1Cl` (stereo not shown) [Compound of Ex. 129], the IC50 was determined as 31 nM at V1 receptor and 4.8 nM at V2 receptor.
Taken in the same sequence, the figures for `Cc1ccccc1C(=O)Nc1ccc(C(=O)N2CCCC(CCNC(C)C)c3cc(Cl)ccc32)cn1` (stereo not shown) [Compound of Ex. 139] were 16 nM and 4.1 nM.
The matching figures for `Cc1ccccc1C(=O)Nc1ccc(C(=O)N2CCCC(CCn3cncn3)c3cc(Cl)ccc32)cn1` (stereo not shown) [Compound of Ex. 140]: 31 nM and 5.6 nM.
Taken in the same sequence, the figures for `CC(=O)NCCC1CCCN(C(=O)c2ccc(NC(=O)c3ccccc3C)nc2)c2ccc(Cl)cc21` (stereo not shown) [Compound of Ex. 143, 7-chloro-5-(2-acetylamino-ethyl)-1-[6-(2-methylbenzoylamino)nicotinoyl]-2,3,4,5-tetrahydro-1H-benzazepine] were 6.6 nM and 3.1 nM.
`Cc1ccccc1C(=O)Nc1ccc(C(=O)N2CCC(O)Cc3cc(Cl)ccc32)cn1` (stereo not shown) [Compound of Ex. 148]: the IC50 stood at 27 nM on V1 receptor and 17 nM at V2 receptor.
Taken in the same sequence, the figures for `O=C(O)COC1CCCN(C(=O)c2ccc(NC(=O)c3ccccc3Cl)nc2)c2ccc(Cl)cc21` (stereo not shown) [Compound of Ex. 169] were 117 nM and 19 nM.
`NC(=O)COC1CCCN(C(=O)c2ccc(NC(=O)c3ccccc3Cl)nc2)c2ccc(Cl)cc21` (stereo not shown) [Compound of Ex. 171]: the IC50 at V1 receptor turned out to be 7.1 nM; on V2 receptor, 3.1 nM.
The matching figures for `CN(C)C(=O)COC1CCCN(C(=O)c2ccc(NC(=O)c3ccccc3Cl)nc2)c2ccc(Cl)cc21` (stereo not shown) [Compound of Ex. 173]: 24 nM and 5.3 nM.
In the case of `CCN(CC)CCN(C)C(=O)COC1CCCN(C(=O)c2ccc(NC(=O)c3ccccc3Cl)nc2)c2ccc(Cl)cc21` (stereo not shown) [Compound of Ex. 175], the IC50 on V1 receptor was 8.4 nM; on V2 receptor, 2.7 nM.
Taken in the same sequence, the figures for `Cc1ccccc1C(=O)Nc1ccc(C(=O)N2CCCC(OCCn3ccnc3)c3cc(Cl)ccc32)cn1` (stereo not shown) [Compound of Ex. 178] were 29 nM and 8 nM.
The matching figures for `CC(=O)N1CCN(CCOC2CCCN(C(=O)c3ccc(NC(=O)c4ccccc4Cl)nc3)c3ccc(Cl)cc32)CC1` (stereo not shown) [Compound of Ex. 181]: 15 nM and 4.4 nM.
Take `Cc1ccccc1C(=O)Nc1ccc(C(=O)N2CCCC(OCCN3CCOCC3)c3cc(Cl)ccc32)cn1` (stereo not shown) [Compound of Ex. 182]: the concentration for half-maximal inhibition (IC50) at V1 receptor was determined as 28 nM; on V2 receptor it was 10 nM.
